# Laboratory results reported in ChEMBL document CHEMBL3044942, “Unexpected plant-systemic insecticidal properties of alkylene-tethered bis-imidacloprid derivatives” (J Pestic Sci, 2010).
# Activity calls are given as the source filed them. The calls are words filed in the database; no cut-off is given here.
# Assays:
# Spodoptera litura [1] = test: Insecticidal activity against Spodoptera litura in compound treated chinese cabbage leaves assessed as mortality after foliar dipping at 100 mg/l at 25 degC measured after 120 hr; format: functional
# Myzus persicae [2] = test: Insecticidal activity against Myzus persicae (green peach aphid) in compound treated chinese cabbage leaves assessed as mortality after foliar dipping at 10 mg/l at 25 degC measured after 120 hr; format: functional
# Myzus persicae [3] = test: Insecticidal activity against Myzus persicae (green peach aphid) in compound treated chinese cabbage leaves assessed as mortality after foliar dipping at 100 mg/l at 25 degC measured after 120 hr; format: functional
# [4] = Octanol-water partition coefficient, log P of the compound; format: physicochemical
# Spodoptera litura [5] = test: Insecticidal activity against Spodoptera litura in compound treated chinese cabbage leaves assessed as mortality after foliar dipping at 10 mg/l at 25 degC measured after 120 hr; format: functional
# Plutella xylostella [6] = test: Insecticidal activity against Plutella xylostella (diamondback moth) assessed as mortality after soil treatment on third day of infestation; format: functional, organism-based
# Myzus persicae [7] = test: Insecticidal activity against Myzus persicae (green peach aphid) assessed as mortality after soil treatment at 25 degC measured after 11th day of infestation; format: functional, organism-based
# Nilaparvata lugens [8] = test: Insecticidal activity against Nilaparvata lugens (brown plant hoppers) in rice seedlings root dipped in compound assessed as mortality at 100 mg/l measured after 14 days of drench application by systemic insecticidal activity assay; format: functional, organism-based
# Nilaparvata lugens [9] = test: Insecticidal activity against Nilaparvata lugens (brown planthoppers) in rice seedlings root dipped in compound assessed as mortality at 100 mg/l measured after 7 days of drench application by systemic insecticidal activity assay; format: functional, organism-based
# Nilaparvata lugens [10] = test: Insecticidal activity against Nilaparvata lugens (brown planthoppers) in rice seedlings root dipped in compound assessed as mortality at 100 mg/l measured after 3 days of drench application by systemic insecticidal activity assay; format: functional, organism-based
# Plutella xylostella [11] = test: Insecticidal activity against Plutella xylostella (diamondback moth) in compound treated cabbage leaves assessed as mortality at 10 mg/l measured on day 3 after foliar treatment by residual insecticidal activity assay; format: functional, organism-based
# Myzus persicae [12] = test: Insecticidal activity against Myzus persicae (green peach aphid) in compound treated chinese cabbage leaves assessed as mortality at 10 mg/l measured on day 3 after foliar treatment by residual insecticidal activity assay; format: functional, organism-based
# Nilaparvata lugens [13] = test: Insecticidal activity against Nilaparvata lugens (brown planthopper) in rice seedlings assessed as mortality measured on day 3 after foliar treatment by residual insecticidal activity assay; format: functional, organism-based
Compound,mortality at 100 µg/mL (Spodoptera litura [1]),mortality at 10 µg/mL (Myzus persicae [2]),mortality at 100 µg/mL (Myzus persicae [3]),logP ([4]; read-out: logP),mortality at 10 µg/mL (Spodoptera litura [5]),logP [4],inhibition (Plutella xylostella [6]),inhibition (Myzus persicae [7]),inhibition (Nilaparvata lugens [8]),inhibition (Nilaparvata lugens [9]),inhibition (Nilaparvata lugens [10]),Activity (Plutella xylostella [11]),Activity (Myzus persicae [12]),Activity (Nilaparvata lugens [13])
O=[N+]([O-])/N=C1\N(CCCCCN2CCN(Cc3ccc(Cl)nc3)/C2=N/[N+](=O)[O-])CCN1Cc1ccc(Cl)nc1,40%,0%,13%,4.77,0%,–,–,–,–,–,–,–,–,–
O=[N+]([O-])/N=C1\N(CCN2CCN(Cc3ccc(Cl)nc3)/C2=N/[N+](=O)[O-])CCN1Cc1ccc(Cl)nc1,20%,23%,97%,4.13,0%,–,–,–,–,–,–,–,–,–
O=[N+]([O-])NC1=NCCN1Cc1ccc(Cl)nc1 [IMIDACLOPRID],97%,100%,100%,–,17%,1.88,–,–,–,–,–,–,–,–
O=[N+]([O-])/N=C1\N(CCCN2CCN(Cc3ccc(Cl)nc3)/C2=N/[N+](=O)[O-])CCN1Cc1ccc(Cl)nc1,80%,13%,27%,4.35,13%,–,–,–,–,–,–,–,–,–
O=[N+]([O-])/N=C1\N(CCCCCCCCCCN2CCN(Cc3ccc(Cl)nc3)/C2=N/[N+](=O)[O-])CCN1Cc1ccc(Cl)nc1,27%,27%,43%,5.76,0%,–,–,–,–,–,–,–,–,–
O=[N+]([O-])/N=C1\N(CCCCCCCN2CCN(Cc3ccc(Cl)nc3)/C2=N/[N+](=O)[O-])CCN1Cc1ccc(Cl)nc1,85%,93%,97%,5.18,23%,–,Active,Active,Active,Active,Active,Active,Active,Active
O=[N+]([O-])/N=C1\N(CCCCCCCCN2CCN(Cc3ccc(Cl)nc3)/C2=N/[N+](=O)[O-])CCN1Cc1ccc(Cl)nc1,80%,83%,97%,5.37,27%,–,–,–,–,–,–,–,–,–
O=[N+]([O-])/N=C1\N(CCCCCCN2CCN(Cc3ccc(Cl)nc3)/C2=N/[N+](=O)[O-])CCN1Cc1ccc(Cl)nc1,83%,10%,23%,4.97,27%,–,–,–,Active,Active,Active,Active,Active,Active
O=[N+]([O-])/N=C1\N(CCCCCCCCCCCCN2CCN(Cc3ccc(Cl)nc3)/C2=N/[N+](=O)[O-])CCN1Cc1ccc(Cl)nc1,0%,19%,50%,6.14,0%,–,–,–,–,–,–,–,–,–
O=[N+]([O-])/N=C1\N(CCCCN2CCN(Cc3ccc(Cl)nc3)/C2=N/[N+](=O)[O-])CCN1Cc1ccc(Cl)nc1,57%,0%,7%,4.56,7%,–,–,–,–,–,–,–,–,–
O=[N+]([O-])/N=C1\N(CCCCCCCCCN2CCN(Cc3ccc(Cl)nc3)/C2=N/[N+](=O)[O-])CCN1Cc1ccc(Cl)nc1,57%,77%,93%,5.57,3%,–,–,–,–,–,–,–,–,–
O=[N+]([O-])/N=C1\N(Cc2ccc(CN3CCN(Cc4ccc(Cl)nc4)/C3=N/[N+](=O)[O-])cc2)CCN1Cc1ccc(Cl)nc1,47%,97%,97%,5.69,3%,–,–,–,–,–,–,–,–,–
O=[N+]([O-])/N=C1/N(Cc2ccc(Cl)nc2)CCN1Cc1cccc(CN2CCN(Cc3ccc(Cl)nc3)/C2=N/[N+](=O)[O-])c1,47%,33%,57%,5.69,3%,–,–,–,–,–,–,–,–,–
